One block for each molecule: values may come before it.
Key:
CthTpt1 [1] = molecular target: T1, CthTpt1 (Acetivibrio thermocellus, UniProt A3DJX6, C46S); test: X-ray crystal structure, […] Å; assay type: binding; conditions: NAD+ site; CoA absent from RNA lobe; acquired during production in E. coli; pH 8.5
T1 construct: gene kptA; 182-aa polypeptide, His6-tagged, recombinant from E. coli; Leu3-Glu182 modelled; one protomer in the asymmetric unit

CthTpt1 [2] = molecular target: T2, CthTpt1 (Acetivibrio thermocellus, UniProt A3DJX6); test: X-ray crystal structure, […] Å; assay type: binding; conditions: acquired during production in E. coli, pH 6.0
T2 construct: gene kptA; 182-aa polypeptide, His6-tagged, recombinant from E. coli; Leu3-Glu182 modelled; one protomer in the asymmetric unit

RslTpt1 = molecular target: T3, RslTpt1 (Runella slithyformis, UniProt A0A7U3ZK32, H99A/T101A); test: RNA […]'-phosphotransferase assay, […]-labelled 6-mer RNA, urea-PAGE; assay type: biochemical; conditions: 1 mM NAD+, 0.2 µM 2'-PO4 6-mer RNA, 0.01 µM enzyme, 30 min, pH 7.5, 37 °C
T3 construct: gene kptA; His6-tagged, recombinant from E. coli, Ni-NTA and gel filtration
T3 sequence (A0A7U3ZK32 entry or part of it H99A/T101A): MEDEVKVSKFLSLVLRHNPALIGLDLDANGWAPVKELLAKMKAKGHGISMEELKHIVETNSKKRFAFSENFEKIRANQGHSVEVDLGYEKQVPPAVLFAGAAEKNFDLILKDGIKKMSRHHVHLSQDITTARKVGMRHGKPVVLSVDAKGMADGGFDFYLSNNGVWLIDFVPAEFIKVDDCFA

T2 sequence (A3DJX6 whole entry): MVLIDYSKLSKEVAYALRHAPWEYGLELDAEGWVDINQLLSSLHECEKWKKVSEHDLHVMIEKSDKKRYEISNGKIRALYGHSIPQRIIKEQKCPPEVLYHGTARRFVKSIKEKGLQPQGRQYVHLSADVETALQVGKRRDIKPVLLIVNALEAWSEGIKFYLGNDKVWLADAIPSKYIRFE
T1 sequence (A3DJX6 whole entry C46S): as the sequence (A3DJX6 whole entry) above, with C46S counted along it

Structure (SMILES): Nc1ncnc2c1ncn2[C@@H]1O[C@H](COP(=O)(O)OP(=O)(O)OC[C@H]2O[C@H](OP(=O)(O)O)[C@H](O)[C@@H]2O)[C@@H](O)[C@H]1O [ADP-ribose-1″-phosphate]
X-ray crystal structure, 1.55 Å (CthTpt1 [1]): ADP-ribose-1″-phosphate was bound to the NAD^+ lobe | X-ray crystal structure, 1.4 Å (CthTpt1 [2]; NAD+ site (C-terminal lobe), CoA also bound): The molecule associated with the C-terminal lobe was unambiguously modeled as ADP-ribose-1″-phosphate

% of input RNA converted to 2′-OH product (RslTpt1): 4%
Structure (SMILES): NC(=O)c1ccc[n+]([C@@H]2O[C@H](COP(=O)([O-])OP(=O)(O)OC[C@H]3O[C@@H](n4cnc5c(N)ncnc54)[C@H](O)[C@@H]3O)[C@@H](O)[C@H]2O)c1 [NAD^+]

Structure (SMILES): CC(C)(COP(=O)(O)OP(=O)(O)OC[C@H]1O[C@@H](n2cnc3c(N)ncnc32)[C@H](O)[C@@H]1OP(=O)(O)O)[C@@H](O)C(=O)NCCC(=O)NCCS [coenzyme A]
X-ray crystal structure, 1.4 Å (CthTpt1 [2]; covalent (disulfide to Cys46), pAp moiety in RNA site (N-terminal lobe), ADP-ribose-1″-phosphate also bound): The molecule associated with the N-terminal lobe was convincingly modeled as coenzyme A (CoA)

Reference: publication PMC6333775, “Structure of tRNA splicing enzyme Tpt1 illuminates the mechanism of RNA 2′-PO4 recognition and ADP-ribosylation” (Nature Communications, 2019)
